According to patent US6727076B2 (priority 1995, dated 2004):
Entries after “also recorded” stand apart in the source; their conditions may differ. Counter-ions that a name gives are not always drawn.

Experiments:
T. harzianum DAOM 190830 = type: cell-based, Trichoderma harzianum
E. coli MG1655 [1] = type: cell-based
E. coli MG1655 [2] = type: cell-based; remark: listed apart in the source
[3] = system: E. coli 287 (ATCC #11775); type: cell-based

Compound | suitability as phosphorus source (growth, purple color) (E. coli MG1655 [1]) | suitability as sulfur source (growth, purple color) (E. coli MG1655 [1]) | other results
O=C(O)CCC(=O)C(=O)O [α-ketoglutaric acid] |  |  | carbon source utilization result (T. harzianum DAOM 190830): positive
Nc1nc2c(ncn2[C@@H]2O[C@H](CO)[C@H]3OP(=O)(O)O[C@H]32)c(=O)[nH]1 [guanosine 2′:3′-cyclic monophosphate] | positive |  | 
C[C@@H](OP(=O)(O)O)[C@H](N)C(=O)O [O-phospho-L-threonine] | positive |  | 
NCCS(=O)O [hypotaurine] |  | positive | 
CN(CC(=O)O)C(=N)NP(=O)(O)O [phosphocreatine] | positive |  | 
NCCCC(=O)O [γ-aminobutyric acid] |  |  | carbon source utilization result (T. harzianum DAOM 190830): positive; suitability as nitrogen source (growth, purple color) (E. coli MG1655 [2]): weak positive; also recorded: not suitable
Cc1cn([C@H]2C[C@H](OP(=O)(O)O)[C@@H](CO)O2)c(=O)[nH]c1=O [thymidine 3′-monophosphate] | positive |  | 
O=P(O)(O)OC1O[C@H](CO)[C@@H](O)[C@H](O)[C@@H]1O (stereo partly shown) [mannose 1-phosphate] | positive |  | 
O=S(O)(O)=S [thiosulfate] |  | positive | 
O=C[C@H](O)[C@@H](O)[C@H](O[C@@H]1O[C@H](CO)[C@@H](O)[C@H](O)[C@H]1O)[C@H](O)CO [Cellobiose] |  |  | carbon source utilization result [3]: negative; carbon source utilization result (T. harzianum DAOM 190830): positive
O=C(O)[C@]1(O)C[C@@H](O)[C@@H](O)[C@H](O)C1 [quinic acid] |  |  | carbon source utilization result [3]: negative; carbon source utilization result (T. harzianum DAOM 190830): positive
OC[C@@H](O)C(O)[C@H](O)CO [D-arabitol] |  |  | carbon source utilization result [3]: negative; carbon source utilization result (T. harzianum DAOM 190830): positive
O=C(COP(=O)(O)O)[C@@H](O)[C@H](O)[C@H](O)CO [fructose 1-phosphate] | positive |  | 
gentiobiose |  |  | carbon source utilization result [3]: positive/negative; carbon source utilization result (T. harzianum DAOM 190830): positive
O=S(=O)(O)SSS(=O)(=O)O [tetrathionate] |  | positive | 
O=P(O)(O)O[C@H]1[C@H](OP(=O)(O)O)[C@@H](OP(=O)(O)O)[C@H](OP(=O)(O)O)[C@@H](OP(=O)(O)O)[C@H]1OP(=O)(O)O [inositol hexaphosphate] | not suitable |  | 
N[C@H]1C(O)O[C@H](COP(=O)(O)O)[C@@H](O)[C@@H]1O (stereo partly shown) [glucosamine 6-phosphate] | positive |  | 
C[S+]([O-])CC[C@H](N)C(=O)O (stereo partly drawn) [L-methionine sulfoxide] |  | positive | 
CCSCCC(N)C(=O)O (racemic) [DL-ethionine] |  | not suitable | 
N[C@@H](CS(=O)(=O)O)C(=O)O [L-cysteic acid] |  | positive | 
CC(=O)N[C@@H](CS)C(=O)O [N-acetyl cysteine] |  | not suitable | 
Nc1nc2c(ncn2[C@@H]2O[C@@H]3COP(=O)(O)O[C@H]3[C@H]2O)c(=O)[nH]1 [guanosine 3′:5′-cyclic monophosphate] | not suitable |  | 
CS(=O)(=O)CC[C@H](N)C(=O)O [L-methionine sulfone] |  | not suitable | 
O=C(O)CCCCCCCCC(=O)O [sebacic acid] |  |  | carbon source utilization result [3]: negative; carbon source utilization result (T. harzianum DAOM 190830): positive

Compound | suitability as phosphorus source (growth, purple color) (E. coli MG1655 [1]) | suitability as sulfur source (growth, purple color) (E. coli MG1655 [1]) | other results
O=P(O)(O)OP(=O)(O)O [pyrophosphate] | not suitable |  | 
N[C@H]1C(OP(=O)(O)O)O[C@H](CO)[C@@H](O)[C@@H]1O (stereo partly shown) [glucosamine 1-phosphate] | positive |  | 
OC[C@@H](O)[C@@H](O)[C@H](O)[C@H](O)CO [D-mannitol] |  |  | carbon source utilization result [3]: positive; carbon source utilization result (T. harzianum DAOM 190830): positive
dextrin |  |  | carbon source utilization result [3]: positive; carbon source utilization result (T. harzianum DAOM 190830): positive
COC(=O)C(C)=O [Methyl pyruvate] |  |  | carbon source utilization result [3]: positive; carbon source utilization result (T. harzianum DAOM 190830): positive
O=c1ccn([C@@H]2O[C@H](CO)[C@@H](O)[C@H]2OP(=O)(O)O)c(=O)[nH]1 [uridine 2′-monophosphate] | positive |  | 
N[C@H](COP(=O)(O)O)C(=O)O [O-phospho-D-serine] | positive |  | 
O=C[C@H](O)[C@@H](O)[C@@H](O)[C@H](O)C(=O)O [D-galacturonic acid] |  |  | carbon source utilization result [3]: positive; carbon source utilization result (T. harzianum DAOM 190830): positive
O=P(O)(O)CP(=O)(O)O [methylene diphosphonic acid] | not suitable |  | 
OC[C@H]1O[C@H](O)[C@H](O)[C@@H](O)[C@@H]1O [α-D-glucose] |  |  | carbon source utilization result [3]: positive; carbon source utilization result (T. harzianum DAOM 190830): positive
N[C@@H](CCC(=O)N[C@@H](CS)C(=O)NCC(=O)O)C(=O)O [glutathione (reduced form)] |  | positive | suitability as nitrogen source (growth, purple color) (E. coli MG1655 [2]): not suitable
O=C[C@H](O)[C@@H](O)[C@H](O)[C@H](O)COP(=O)(O)O [Glucose-6-phosphate] | positive |  | carbon source utilization result [3]: positive
O=C(O)COP(=O)(O)O [phosphoglycolic acid] | positive |  | 
CSCCC(NC(=O)CN)C(=O)O (racemic) [glycyl-DL-methionine] |  | positive | 
N[C@@H](CSCSC[C@H](N)C(=O)O)C(=O)O [L-djenkolic acid] |  | positive | 
glycogen |  |  | carbon source utilization result (T. harzianum DAOM 190830): positive
O=C[C@H](O)[C@@H](O)[C@@H](O)CO [L-arabinose] |  |  | carbon source utilization result [3]: positive; carbon source utilization result (T. harzianum DAOM 190830): positive
O=P(O)(O)OC(CO)CO [β-glycerophosphate] | positive |  | 
phosphatidyl glycerol | not suitable |  | 
N[C@@H](COP(=O)(O)O)C(=O)O [O-phospho-L-serine] | positive |  | 
O=C(O)CP(=O)(O)O [phosphonoacetic acid] | not suitable |  | 
O=C[C@H](O)[C@@H](O)[C@@H](O)[C@H](O)CO [D-galactose] |  |  | carbon source utilization result [3]: positive; carbon source utilization result (T. harzianum DAOM 190830): positive
C[C@H](O)[C@@H](O)[C@@H](O)[C@H](O)C=O [L-fucose] |  |  | carbon source utilization result [3]: positive; carbon source utilization result (T. harzianum DAOM 190830): positive
O=C(CO)[C@@H](O)[C@H](O)[C@H](O)COP(=O)(O)O [Fructose-6-phosphate] | positive |  | 

Compound | suitability as phosphorus source (growth, purple color) (E. coli MG1655 [1]) | suitability as sulfur source (growth, purple color) (E. coli MG1655 [1]) | other results
CC(=O)OC[C@H](N)C(=O)O [O-acetyle-serine with sodium sulfate, O-acetyl-serine] |  | positive | 
CSCCC(NC(C)=O)C(=O)O (racemic) [N-acetyl-DL-methionine] |  | positive | 
O=S1(=O)CCCC1 [tetramethylene sulfone] |  | not suitable | 
O=C[C@@H](O)[C@H](O)[C@H](O)COP(=O)(O)O [arabinose 5-phosphate] | positive |  | 
O=C(O)CS [thioglycolic acid] |  | not suitable | 
O=P(O)(O)OP(=O)(O)OP(=O)(O)O [tripolyphosphate] | not suitable |  | 
NC(=O)CCC(=O)O [succinamic acid] |  |  | carbon source utilization result (T. harzianum DAOM 190830): positive
Nc1nc2c(ncn2[C@@H]2O[C@H](CO)[C@@H](OP(=O)(O)O)[C@H]2O)c(=O)[nH]1 [guanosine 3′-monophosphate] | positive |  | 
NCCS(=O)(=O)O [taurine] |  | positive | 
Cc1cn([C@H]2C[C@H](O)[C@@H](COP(=O)(O)O)O2)c(=O)[nH]c1=O [thymidine 5′-monophosphate] | positive |  | 
CSC[C@H](N)C(=O)O [S-methyl-L-cysteine] |  | weak positive | 
O=C[C@@H](O)[C@@H](O)[C@H](O)[C@H](O)COP(=O)(O)O [mannose 6-phosphate] | positive |  | 
NCCC[C@H](N)C(=O)O [L-ornithine] |  |  | carbon source utilization result (T. harzianum DAOM 190830): positive; suitability as nitrogen source (growth, purple color) (E. coli MG1655 [2]): not suitable
CSCC[C@H](N)C(=O)O [L-methionine] |  | positive | suitability as nitrogen source (growth, purple color) (E. coli MG1655 [2]): not suitable
O=S(=O)(O)CCO [isethionate] |  | positive | 
N[C@@H](CS(=O)O)C(=O)O [L-cysteine sulphinic acid] |  | positive | 
O=C(O)C(CO)OP(=O)(O)O (stereo not shown) [2-phosphoglyceric acid] | positive |  | 
OP(O)(O)=S [thiophosphate] | positive | positive | 
N[C@@H](CS)C(=O)O [L-cysteine] |  | positive | suitability as nitrogen source (growth, purple color) (E. coli MG1655 [2]): not suitable
N[C@@H](CS)C(=O)NCC(=O)O [cys-gly] |  | positive | 
C[C@H](CCC(=O)NCCS(=O)(=O)O)[C@H]1CC[C@H]2[C@@H]3[C@H](O)C[C@@H]4C[C@H](O)CC[C@]4(C)[C@H]3C[C@H](O)[C@]12C [taurocholic acid] |  | positive | 
N[C@@H](CCSC[C@H](N)C(=O)O)C(=O)O [cystathionine] |  | positive | 
N[C@H](Cc1ccc(OP(=O)(O)O)cc1)C(=O)O [O-phospho-D-tyrosine] | positive |  | 
